Data on 39 compounds can be found in US4963589A, “Methods for treating Giardia lamblia” (The University of North Carolina at Chapel Hill, priority 1988, dated 1990).

The subject of experiment [1] is Giardia lamblia trophozoites, WB strain (ATCC #30957). Kind of experiment: 3H-thymidine incorporation drug sensitivity assay, Giardia lamblia WB strain (ATCC 30957). The class given is cell-based. To be noted: for IC50: Giardia duodenalis; for efficacy against Giardia lamblia (in words): qualitative statements on the results. A general note: Dividing cells build labelled thymidine or BrdU into new DNA.
Method: Giardia lamblia trophozoites were obtained from logarithmically growing stock cultures. Into the wells of a 96 well U-bottom tissue culture plate (Costar) was placed 100 μl of modified TYI-S-33 medium containing 2.5×10^4 trophozoites. The tissue culture plate was maintained in an anerobic environment by placing it inside a plastic box modified to allow nitrogen to be passed through the box via inlet and outlet tubing which could be clamped shut. Nitrogen was passed through the box for 2 minutes and the container was placed in a 37° C. incubator gassed with 5% CO2 in air.
Varying concentrations of ^3 H-thymidine (0.5, 1.0, 1.5 and 2.0 μCi/well) were added to wells containing 2.5×10^4 Giardia lamblia trophozoites at 2 hour intervals so that it might remain in contact with the trophozoites for 2 to 24 hours. After 24 hours of incubation, the cells were harvested with a multimash cell harvester by washing vigorously with ice-cold Hank's Balanced Salt Solution. Samples were collected on Whatman glass microfiber paper. the paper was air dried, samples were placed in 7 ml scintillation vials and the incorporation of ^3 H-thymidine was determined by liquid scintillation counting. Mean values were calculated from 5 replicates for each time point and concentration.
One hundred μl of modified TYI-S-33 medium containing 2.5×10^4trophozoites was placed into each well of a 96-well U-bottom plate. The plates were incubated under anaerobic conditions for 24 hours. After 24 hours, the compounds to be tested were prepared from the 2 mM stock solutions and 100 μl each solution was added to yield concentrations of 1, 10, 100 and 1000 μMin the wells. Ten μl of a 150 μCi/ml solution of ^3 H-thymidine (SA=10 Ci/mmole) in modified TYI-S-33 was added 6 hours after the addition of drug to yield a final concentration of 1.5 μCi/well. After an additional 18 hours of incubation the cells were harvested. Five replicates were run for each drug concentration and the mean values determined. Non-specific binding of the ^3 H-thymidine to the microfiber paper was determined through the use of control wells to which no organisms were added. The activities of compounds tested were determined by comparing the incorporation of ^ 3 H-thymidine in the wells to which the compounds were added to that of wells of drug free controls. The drug concentration required to inhibit 50% incorporation of ^3 H-thymidine (IC50) was determined (Chou, 1974).

Experiment [2] deals with Giardia lamblia Stock BRIS/82/HEPU/41. To be noted: Table IV; Stock BRIS/82/HEPU/41 (Boreham et al., 1984); read-out: IC50 determined by 3H-thymidine incorporation; cited from earlier work.
The test system of experiment [3] is Giardia lamblia Stock BRIS/83/HEPU/106. The note with it: Table IV; Stock BRIS/83/HEPU/106 (Boreham et al., 1984); read-out: IC50 determined by 3H-thymidine incorporation; cited from earlier work.
Experiment [4] relates to Giardia lamblia Stock BRI/83/HEPU/136. To be noted: Table IV; Stock BRI/83/HEPU/136 (Boreham et al., 1984); read-out: IC50 determined by 3H-thymidine incorporation; cited from earlier work.
Experiment [5] deals with Giardia lamblia Stock BRIS/83/HEPU/120. The note with it: Table IV; Stock BRIS/83/HEPU/120 (Boreham et al., 1984); read-out: IC50 determined by 3H-thymidine incorporation; cited from earlier work.
[6] abbreviates: ATCC30957, Table III, 50% inhibition of 3H-thymidine incorporation, WB strain, 24 h with drug, read-out: IC50, Giardia lamblia vs. para-imidazolines.
Setting [7] is: ATCC30957, read-out: IC50, Giardia lamblia vs. para-amidines.
Setting [8] is: ATCC30957, Table I, 50% inhibition of 3H-thymidine incorporation, WB strain, 24 h with drug, read-out: IC50, Giardia lamblia vs. para-amidines.
The mark [9] stands for this setting: ATCC30957, Table IV, Stock WB (ATCC 30957), read-out: IC50 determined by 3H-thymidine incorporation.
Where [10] appears, read: ATCC30957, Table II, 50% inhibition of 3H-thymidine incorporation, WB strain, 24 h with drug, read-out: IC50, Giardia lamblia vs. meta-amidines.

Where a name gives a salt, the structure may show the parent alone. Read-outs that look alike come from different tables or passages of the source.

In the case of `c1cc(C2=NCCN2)ccc1OCCCCOc1ccc(C2=NCCN2)cc1` [Example 32], in experiment [1] (setting [6]), the IC50 came out at 26 µM.
Regarding `N=C(N)c1ccc(NCCCNc2ccc(C(=N)N)cc2[N+](=O)[O-])c([N+](=O)[O-])c1` [Example 7], the IC50 in experiment [1] (setting [7]) came out at 84.2 µM.
In the case of `N=C(N)c1ccc(OCCCCOc2ccc(C(=N)N)cc2[N+](=O)[O-])c([N+](=O)[O-])c1` [Example 10], the IC50 in experiment [1] (setting [7]) worked out at 53.2 µM.
Turning to `CN1CCN=C1c1ccc(OCCCCCOc2ccc(C3=NCCN3C)cc2)cc1` [Example 35], the IC50 in experiment [1] (setting [6]) worked out at 373 µM.
Take `N=C(N)c1ccc(OCCCCCCOc2ccc(C(=N)N)cc2)cc1` [Example 23]: the IC50 in experiment [1] (setting [8]) is 34.3 µM.
On to `Cc1ncc([N+](=O)[O-])n1CCO` [Metronidazole], for which the IC50 in experiment [1] (setting [9]) is 3.65 µM; in experiment [2], 2.14 µM; in experiment [3], 0.91 µM; in experiment [4], 2.21 µM; in experiment [5], 1.08 µM.
Take `N=C(N)c1ccc(OCCCCOc2ccc(C(=N)N)cc2N)c(N)c1` [Example 9]: in experiment [1] (setting [8]), the IC50 turned out to be 96.8 µM.
The same measure, in the same setting: the value for `N=C(N)c1ccc(NCCCNc2ccc(C(=N)N)cc2)cc1` [Example 6] was 68.2 µM; that for `N=C(N)c1ccc(OCCCCCCOc2ccc(C(=N)N)cc2N)c(N)c1` [Example 24] was 38.7 µM; that for `COc1cc(C(=N)N)ccc1OCCCOc1ccc(C(=N)N)cc1OC` [Example 5] was 3.2 µM.
Same read-out and setting: the result for `N=C(N)c1ccc(NCCCCCCNc2ccc(C(=N)N)cc2N)c(N)c1` [Example 26] reads 21.9 µM; that for `N=C(N)c1ccc(NCCCCNc2ccc(C(=N)N)cc2)cc1` [Example 13], 50.7 µM.
Turning to `N=C(N)c1ccc(NCCCCCNc2ccc(C(=N)N)cc2[N+](=O)[O-])c([N+](=O)[O-])c1` [Example 22], the IC50 in experiment [1] (setting [7]) was 29.9 µM.
Same read-out and setting: the value for `N=C(N)c1ccc(OCCCCCOc2ccc(C(=N)N)cc2[N+](=O)[O-])c([N+](=O)[O-])c1` [Example 17] was 26.1 µM.
Consider `COc1cc(C(=N)N)ccc1OCCCCCOc1ccc(C(=N)N)cc1OC` [Example 18], for which the IC50 in experiment [1] (setting [8]) was 24 µM.
In the case of `N=C(N)c1cccc(OCCCCCOc2cccc(C(=N)N)c2)c1` [Example 29], the IC50 in experiment [1] (setting [10]) was found to be 55.8 µM.
With `CCN(CC)CCCC(C)Nc1c2ccc(Cl)cc2nc2ccc(OC)cc12` (centres unmarked) [Quinacrine . HCl], the IC50 in experiment [1] (setting [9]) is 1.41 µM; in experiment [2] it was 1.09 µM; in experiment [3], 1.18 µM; in experiment [4] it was 4.02 µM; in experiment [5] it was 1.59 µM.
On to `COc1cc(C2=NCCN2)ccc1OCCCCCOc1ccc(C2=NCCN2)cc1OC` [Example 36], for which the IC50 in experiment [1] (setting [6]) came out at 47.1 µM.
In the case of `N=C(N)c1ccc(OCCCOc2ccc(C(=N)N)cc2)cc1` [Example 3], the IC50 in experiment [1] (setting [8]) came to 12.3 µM.
With `N=C(N)c1ccc(OCCCCCOc2ccc(C(=N)N)cc2N)c(N)c1` [Example 16], the IC50 in experiment [1] (setting [8]) amounted to 66.3 µM.
`N=C(N)c1cccc(OCCCCOc2cccc(C(=N)N)c2)c1` [Example 28]: the IC50 in experiment [1] (setting [10]) stood at 106 µM.
As for `CN1CCN=C1c1ccc(OCCCCOc2ccc(C3=NCCN3C)cc2)cc1` [Example 33], in experiment [1] (setting [6]), the IC50 was 346 µM.
Consider `N=C(N)c1ccc(OCCCOc2ccc(C(=N)N)cc2N)c(N)c1` [Example 4], for which, in experiment [1] (setting [8]), the IC50 is 15.4 µM.
Still for that read-out and setting: the result for `COc1cc(C(=N)N)ccc1OCCCCOc1ccc(C(=N)N)cc1OC` [Example 11] reads 68.8 µM; that for `N=C(N)c1ccc(NCCCCCNc2ccc(C(=N)N)cc2N)c(N)c1` [Example 21], 48.6 µM.
Same read-out and setting: the result for `N=C(N)c1ccc(OCCCCOc2ccc(C(=N)N)cc2Cl)c(Cl)c1` [Example 12] reads 27.7 µM.
As to `c1cc(C2=NCCN2)ccc1OCCCCCOc1ccc(C2=NCCN2)cc1` [Example 34], the IC50 in experiment [1] (setting [6]) was 39.2 µM.
For the compound `N=C(N)c1ccc(OCCCCCOc2ccc(C(=N)N)cc2Cl)c(Cl)c1` [Example 19], the IC50 in experiment [1] (setting [8]) stood at 16.3 µM.
Take `N=C(N)c1ccc(NCCCCNc2ccc(C(=N)N)cc2N)c(N)c1` [Example 14]: the IC50 in experiment [1] (setting [8]) turned out to be 108 µM.
Regarding `N=C(N)c1cccc(OCCCCCCOc2cccc(C(=N)N)c2)c1` [Example 30], the IC50 in experiment [1] (setting [10]) was determined as 84.2 µM.
Consider `COc1cc(C2=NCCN2)ccc1OCCCOc1ccc(C2=NCCN2)cc1OC` [Example 31], for which the IC50 in experiment [1] (setting [6]) was 25.4 µM. Moreover, the “efficacy against Giardia lamblia (in words)” value in experiment [1] is listed as “slightly less efficacious than the amidine counterpart of Example 5”.
Regarding `N=C(N)c1ccc(NCCCCCNc2ccc(C(=N)N)cc2)cc1` [Example 20], the IC50 in experiment [1] (setting [8]) was 40.6 µM.
Consider `N=C(N)c1ccc(OCCCCCOc2ccc(C(=N)N)cc2)cc1` [Example 15, reference compound], for which the IC50 in experiment [1] (setting [7]) turned out to be 76.5 µM. The “efficacy against Giardia lamblia (in words)” value in experiment [1] is “moderately effective”.
In the case of `N=C(N)c1ccc(OCCOc2ccc(C(=N)N)cc2N)c(N)c1` [Example 1], in experiment [1] (setting [8]), the IC50 came out at 1180 µM.
Take `N=C(N)c1cccc(OCCCOc2cccc(C(=N)N)c2)c1` [Example 27]: the IC50 in experiment [1] (setting [10]) is 560 µM.
Consider `N=C(N)c1ccc(NCCCCCCNc2ccc(C(=N)N)cc2)cc1` [Example 25], for which, in experiment [1] (setting [8]), the IC50 was found to be 4.2 µM.
Take `N=C(N)c1ccc(NCCNc2ccc(C(=N)N)cc2N)c(N)c1` [Example 2]: in experiment [1] (setting [8]), the IC50 is 744 µM.
Still for that read-out and setting: the value for `N=C(N)c1ccc(OCCCCOc2ccc(C(=N)N)cc2)cc1` [Example 8] was 61.6 µM.
Regarding `O=C1OCCN1N=Cc1ccc([N+](=O)[O-])o1` [Furazolidone], the IC50 in experiment [1] (setting [9]) is 1.9 µM; in experiment [2], 0.6 µM; in experiment [3], 0.74 µM; in experiment [4], 0.43 µM; in experiment [5], 2.5 µM.
